For 27 compounds, IC50 results are on record in patent publication US9637491B2, “Pyrazolo[4,3-D]pyrimidines as kinase inhibitors” (Origenis GmbH, priority 2012, dated 2017).

The test concerns the target T1, SYK kinase (Homo sapiens, UniProt P43405).
T1 construct: purchased Invitrogen, Carlsbad
Kind of test: SYK assay (OMNIA Kinase Assay, Invitrogen). Particulars: SYK Activities; 1 mM ATP, 10 μM Omnia Peptide Substrate Tyr 7, 30° C. In kind it is biochemical. In a few lines:
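SYK was added last to start phosphorylation of a chelation-enhanced SOX peptide substrate (10 μM) in the presence of 1 mM ATP and 0.2 mM DTT at 30° C. Kinetic readings at λex 360/λem 485 nm over 30 min gave velocities, fitted sigmoidally against compound concentration to give IC50.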

Structures are written as SMILES.

For orientation: IC50 means the concentration that inhibits the measured activity by half. Regarding `CC(C)(C)N1CCN(c2ccc(Nc3nc(-c4c(F)cccc4F)nc4cn[nH]c34)cc2)CC1` [Example 10, N-(4-(4-(tert-butyl)piperazin-1-yl)phenyl)-5-(2,6-difluorophenyl)-1H-pyrazolo[4,3-d]pyrimidin-7-amine], the IC50 fell in the range of 10 to 100 nM.
In the case of `NS(=O)(=O)c1cccc(-c2nc(Nc3cnn(C4CCOCC4)c3)c3[nH]ncc3n2)c1` [Example 425, 3-(7-((1-(tetrahydro-2H-pyran-4-yl)-1H-pyrazol-4-yl)amino)-1H-pyrazolo[4,3-d]pyrimidin-5-yl)benzenesulfonamide] it was 10 to 100 nM; in that of `COc1cc(Nc2nc(-c3c(F)cccc3F)nc3cn[nH]c23)ccc1N1CCOCC1` [Example 12, 5-(2,6-difluorophenyl)-N-(3-methoxy-4-morpholinophenyl)-1H-pyrazolo[4,3-d]pyrimidin-7-amine], under 10 nM.
`c1coc(-c2nc(Nc3cnn(C4CCOCC4)c3)c3[nH]ncc3n2)n1` [Example 254, 5-(oxazol-2-yl)-N-(1-(tetrahydro-2H-pyran-4-yl)-1H-pyrazol-4-yl)-1H-pyrazolo[4,3-d]pyrimidin-7-amine] yielded an IC50 of 100 to 1000 nM.
In turn, `CC(=O)N1CCN(c2ccc(Nc3nc(-c4ccoc4)nc4cn[nH]c34)cc2)CC1` [Example 96, 1-(4-(4-((5-(furan-3-yl)-1H-pyrazolo[4,3-d]pyrimidin-7-yl)amino)phenyl)piperazin-1-yl)ethan-1-one] returned an IC50 of 10 to 100 nM.
The value for `COCCn1cc(Nc2nc(-c3ccco3)nc3cn[nH]c23)cn1` [Example 195, 5-(furan-2-yl)-N-(1-(2-methoxyethyl)-1H-pyrazol-4-yl)-1H-pyrazolo[4,3-d]pyrimidin-7-amine] was 10 to 100 nM.
In the case of `COc1cc(Nc2nc(-c3ccon3)nc3cn[nH]c23)ccc1N1CCOCC1` [Example 76, 5-(isoxazol-3-yl)-N-(3-methoxy-4-morpholinophenyl)-1H-pyrazolo[4,3-d]pyrimidin-7-amine] it was 100 to 1000 nM; in that of `c1nn(C2CCNC2)cc1Nc1nc(-c2ccc3cn[nH]c3c2)nc2cn[nH]c12` (stereo not drawn) [Example 447, 5-(1H-indazol-6-yl)-N-(1-(pyrrolidin-3-yl)-1H-pyrazol-4-yl)-1H-pyrazolo[4,3-d]pyrimidin-7-amine], under 10 nM.
Consider `CC(C)Cn1cc(Nc2nc(-c3cocn3)nc3cn[nH]c23)cn1` [Example 246, N-(1-isobutyl-1H-pyrazol-4-yl)-5-(oxazol-4-yl)-1H-pyrazolo[4,3-d]pyrimidin-7-amine], for which the IC50 lay in the range of 10 to 100 nM.
`c1cc(N2CCOCC2)ccc1Nc1nc(C2COCCO2)nc2cn[nH]c12` (stereo not drawn) [Example 84, 5-(1,4-dioxan-2-yl)-N-(4-morpholinophenyl)-1H-pyrazolo[4,3-d]pyrimidin-7-amine] gave an IC50 of 100 to 1000 nM.
In the case of `c1cc(N2CCOCC2)ccc1Nc1nc(-c2cn[nH]c2)nc2cn[nH]c12` [Example 394, N-(4-morpholinophenyl)-5-(1H-pyrazol-4-yl)-1H-pyrazolo[4,3-d]pyrimidin-7-amine] it was 10 to 100 nM; in that of `COc1ccc(Nc2nc(-c3c(F)cccc3Cl)nc3cn[nH]c23)cc1OC` [Example 513, 5-(2-chloro-6-fluorophenyl)-N-(3,4-dimethoxyphenyl)-1H-pyrazolo[4,3-d]pyrimidin-7-amine], 100 to 1000 nM; in that of `c1cc(N2CCOCC2)ccc1Nc1nc(C2CCC2)nc2cn[nH]c12` [Example 120, 5-cyclobutyl-N-(4-morpholinophenyl)-1H-pyrazolo[4,3-d]pyrimidin-7-amine], under 10 nM.
Consider `Cc1nn(C2CCOCC2)cc1Nc1nc(-c2ccoc2)nc2cn[nH]c12` [Example 294, 5-(furan-3-yl)-N-(3-methyl-1-(tetrahydro-2H-pyran-4-yl)-1H-pyrazol-4-yl)-1H-pyrazolo[4,3-d]pyrimidin-7-amine], for which the IC50 was in the range of 100 to 1000 nM.
`CC(=O)N1CCN(c2ccc(Nc3nc(C4CC4C)nc4cn[nH]c34)cc2)CC1` (stereo not drawn) [Example 102, 1-(4-(4-((5-(2-methylcyclopropyl)-1H-pyrazolo[4,3-d]pyrimidin-7-yl)amino)phenyl)piperazin-1-yl)ethan-1-one] displayed an IC50 of 100 to 1000 nM.
Compound `COc1cccc(-c2nc(Nc3cnn(C4CCOCC4)c3)c3[nH]ncc3n2)c1` [Example 409, 5-(3-methoxyphenyl)-N-(1-(tetrahydro-2H-pyran-4-yl)-1H-pyrazol-4-yl)-1H-pyrazolo[4,3-d]pyrimidin-7-amine] registered an IC50 of 10 to 100 nM.
The value for `COCCCn1cc(Nc2nc(C(C)(C)C)nc3cn[nH]c23)cn1` [Example 270, 5-(tert-butyl)-N-(1-(3-methoxypropyl)-1H-pyrazol-4-yl)-1H-pyrazolo[4,3-d]pyrimidin-7-amine] was 100 to 1000 nM; that for `COCCn1cc(Nc2nc(-c3cccc(NS(C)(=O)=O)c3)nc3cn[nH]c23)cn1` [Example 265, N-(3-(7-((1-(2-methoxyethyl)-1H-pyrazol-4-yl)amino)-1H-pyrazolo[4,3-d]pyrimidin-5-yl)phenyl)methanesulfonamide] was 100 to 1000 nM.
The value for `O=C(c1ccc(Nc2nc(-c3ccoc3)nc3cn[nH]c23)cc1F)N1CCOCC1` [Example 201, (2-fluoro-4-((5-(furan-3-yl)-1H-pyrazolo[4,3-d]pyrimidin-7-yl)amino)phenyl)(morpholino)methanone] was 100 to 1000 nM.
For `c1cc(N2CCOCC2)ccc1Nc1nc(C2CC2)nc2cn[nH]c12` [Example 18, 5-cyclopropyl-N-(4-morpholinophenyl)-1H-pyrazolo[4,3-d]pyrimidin-7-amine], the IC50 is under 10 nM.
The value for `FC(F)(F)Cn1cc(Nc2nc(-c3ccc4cn[nH]c4c3)nc3cn[nH]c23)cn1` [Example 517, 5-(1H-indazol-6-yl)-N-(1-(2,2,2-trifluoroethyl)-1H-pyrazol-4-yl)-1H-pyrazolo[4,3-d]pyrimidin-7-amine] was 10 to 100 nM; that for `CC(C)n1cc(Nc2nc(C3CC3)nc3cn[nH]c23)cn1` [Example 229, 5-cyclopropyl-N-(1-isopropyl-1H-pyrazol-4-yl)-1H-pyrazolo[4,3-d]pyrimidin-7-amine] was under 10 nM.
In the case of `COCCn1cc(Nc2nc(C(C)C)nc3cn[nH]c23)cn1` [Example 185, 5-isopropyl-N-(1-(2-methoxyethyl)-1H-pyrazol-4-yl)-1H-pyrazolo[4,3-d]pyrimidin-7-amine] it was 100 to 1000 nM; in that of `CC(C)c1nc(Nc2ccc(N3CCOCC3)cc2)c2[nH]ncc2n1` [Example 181, 5-isopropyl-N-(4-morpholinophenyl)-1H-pyrazolo[4,3-d]pyrimidin-7-amine], 100 to 1000 nM; in that of `CC(C)(C#N)c1ccc(Nc2nc(-c3c(F)cccc3F)nc3cn[nH]c23)cc1` [Example 28, 2-(4-((5-(2,6-difluorophenyl)-1H-pyrazolo[4,3-d]pyrimidin-7-yl)amino)phenyl)-2-methylpropanenitrile], 100 to 1000 nM.
In turn, `CC(c1ccccc1)n1cc(Nc2nc(-c3ccoc3)nc3cn[nH]c23)cn1` (stereo not drawn) [Example 487, 5-(furan-3-yl)-N-(1-(1-phenylethyl)-1H-pyrazol-4-yl)-1H-pyrazolo[4,3-d]pyrimidin-7-amine] yielded an IC50 of 100 to 1000 nM.
The value for `OCCn1cc(Nc2nc(-c3ccoc3)nc3cn[nH]c23)cn1` [Example 242, 2-(4-((5-(furan-3-yl)-1H-pyrazolo[4,3-d]pyrimidin-7-yl)amino)-1H-pyrazol-1-yl)ethan-1-ol] was under 10 nM.
